Laboratory results as given in ChEMBL document CHEMBL5390237, “Discovery of Selective Histone Deacetylase 1 and 2 Inhibitors: Screening of a Focused Library Constructed by Click Chemistry, Kinetic Binding Analysis, and Biological Evaluation” (J Med Chem, 2023).

Target: Histone deacetylase 2 (Homo sapiens, UniProt Q92769)
Test: Inhibition of full-length recombinant human C-terminal GST tagged HDAC2 expressed in Sf9 insect cells using aminoluciferin peptide substrate at 100 nM preincubated for 3 hrs followed by substrate addition and measured after 30 mins by HDAC-Glo I/II chemiluminescence assay
Details: time 3.5 hrs

Sequence of Histone deacetylase 2 (Q92769 whole entry): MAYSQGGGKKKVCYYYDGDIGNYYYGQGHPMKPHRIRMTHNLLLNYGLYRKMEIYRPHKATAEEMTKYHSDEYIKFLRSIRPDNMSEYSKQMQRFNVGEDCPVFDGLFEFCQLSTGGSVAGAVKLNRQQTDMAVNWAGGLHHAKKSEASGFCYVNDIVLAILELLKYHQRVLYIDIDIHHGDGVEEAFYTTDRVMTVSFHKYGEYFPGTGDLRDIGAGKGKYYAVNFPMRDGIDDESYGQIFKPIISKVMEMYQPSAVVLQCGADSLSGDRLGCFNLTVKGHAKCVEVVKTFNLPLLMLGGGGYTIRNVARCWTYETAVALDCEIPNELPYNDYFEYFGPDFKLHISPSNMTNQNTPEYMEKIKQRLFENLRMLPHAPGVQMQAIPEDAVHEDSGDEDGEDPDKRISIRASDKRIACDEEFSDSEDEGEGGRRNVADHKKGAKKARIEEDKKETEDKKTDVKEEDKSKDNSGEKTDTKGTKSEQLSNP

In order of falling inhibition:
1. Nc1ccc(-c2cccs2)cc1NC(=O)c1ccc(-c2cn(CCN3CCOCC3)nn2)cc1  75%
2. COc1ccc(-n2cc(C(=O)Nc3cc(-c4ccsc4)ccc3N)nn2)cc1  22%
3. Nc1ccc(-c2ccsc2)cc1NC(=O)CCc1cn(CCc2cccc(F)c2)nn1  21%
4. Cc1cccc(C)c1NC(=O)Cn1cc(CCC(=O)Nc2cc(-c3ccccc3)ccc2N)nn1  19%
5. Nc1ccc(-c2ccsc2)cc1NC(=O)c1cn(CCc2ccc(C(=O)O)cc2)nn1  18%
6. Nc1ccc(-c2ccccc2)cc1NC(=O)CCc1cn(/C=C/c2ccccc2)nn1  15%
7. Nc1ccc(-c2cccs2)cc1NC(=O)c1ccc(-c2cn(CCCCCCCC(=O)O)nn2)s1  14%
8. COc1ccc(-n2cc(CCC(=O)Nc3cc(-c4cccs4)ccc3N)nn2)cc1  14%
9. Cc1ccccc1CCn1cc(CCC(=O)Nc2cc(-c3cccs3)ccc2N)nn1  13%
10. Cc1csc(CCn2cc(C(=O)Nc3cc(-c4ccsc4)ccc3N)nn2)n1  12%
11. COc1ccccc1CCn1cc(CCC(=O)Nc2cc(-c3cccs3)ccc2N)nn1  12%
12. COc1ccc(-n2cc(CCC(=O)Nc3cc(-c4ccc(F)cc4)ccc3N)nn2)cc1  10%
13. COc1ccccc1CCn1cc(CCC(=O)Nc2cc(-c3ccccc3)ccc2N)nn1  10%
14. Nc1ccc(-c2cccs2)cc1NC(=O)c1ccc(-c2cn(CCCCCC(=O)O)nn2)cc1  9%
15. Nc1ccc(-c2ccccc2)cc1NC(=O)CCc1cn(Cc2cccc3ccccc23)nn1  9%
16. Nc1ccc(-c2ccccc2)cc1NC(=O)CCc1cn(CCc2ccc(F)cc2)nn1  9%
17. Nc1ccc(-c2cccs2)cc1NC(=O)c1cn(CCCCCCC(=O)O)nn1  7%
18. Cc1ccc(CCn2cc(C(=O)Nc3cc(-c4ccc(F)cc4)ccc3N)nn2)cc1  7%
19. COc1ccccc1CCn1cc(C(=O)Nc2cc(-c3cccs3)ccc2N)nn1  6%
20. Nc1ccc(-c2ccsc2)cc1NC(=O)c1cn(Cc2cccc3ccccc23)nn1  4%
21. Cc1ccc(CCn2cc(-c3cccc(C(=O)Nc4cc(-c5cccs5)ccc4N)c3)nn2)cc1  4%
22. Nc1ccc(-c2cccs2)cc1NC(=O)c1cccc(-c2cn(CS(=O)(=O)c3ccccc3)nn2)c1  3%
23. Nc1ccc(-c2cccs2)cc1NC(=O)c1cccc(-c2cn(CCc3ccc([N+](=O)[O-])cc3)nn2)c1  1%
24. Nc1ccc(-c2cccnc2)cc1NC(=O)CCc1cn(CCc2ccsc2)nn1  1%
25. Nc1ccc(-c2ccc(F)cc2)cc1NC(=O)c1cn(CCCCCc2ccccc2)nn1  1%
26. Cc1ccccc1CCn1cc(C(=O)Nc2cc(-c3ccccc3)ccc2N)nn1  0%
27. Nc1ccc(-c2ccsc2)cc1NC(=O)c1cn(CCc2ccc([N+](=O)[O-])cc2)nn1  0%
28. Nc1ccc(-c2cccs2)cc1NC(=O)CCc1cn(CCc2ccccc2C(F)(F)F)nn1  0%
29. Nc1ccc(-c2cccs2)cc1NC(=O)CCc1cn(Cc2ccc(-c3ccccc3)cc2)nn1  0%
30. Nc1ccc(-c2cccs2)cc1NC(=O)c1cn(CCN2CCOCC2)nn1  0%
31. Nc1ccc(-c2ccsc2)cc1NC(=O)CCc1cn(-c2ccc([N+](=O)[O-])cc2)nn1  0%
32. Nc1ccc(-c2ccccc2)cc1NC(=O)CCc1cn(Cc2ccc(-c3ccccc3)cc2)nn1  0%
33. Nc1ccc(-c2ccccc2)cc1NC(=O)c1cn(Cc2ccc(OC(F)(F)F)cc2)nn1  0%
34. Nc1ccc(-c2ccsc2)cc1NC(=O)c1cn(CCc2cccc(Cl)c2)nn1  0%
35. Nc1ccc(-c2ccccc2)cc1NC(=O)CCc1cn(CCc2ccc(Cl)cc2)nn1  0%
36. Nc1ccc(-c2ccsc2)cc1NC(=O)c1cn(-c2ccc([N+](=O)[O-])cc2)nn1  0%
37. Nc1ccc(-c2ccccc2)cc1NC(=O)c1cn(CCc2ccc(-c3ccccc3)cc2)nn1  0%
38. Nc1ccc(-c2cccs2)cc1NC(=O)c1ccc(-c2cn(CC3CCCCC3)nn2)s1  0%
